Measured values as given in patent US20160002247A1, “8-SUBSTITUTED IMIDAZOPYRIMIDINONE DERIVATIVE HAVING AUTOTAXIN INHIBITORY ACTIVITY” (THE UNIVERSITY OF TOKYO, priority 2013, published 2016).

The molecules below were run against T1, Human autotaxin enzyme (Homo sapiens, UniProt Q13822) (assay: Evaluation of autotaxin inhibitor, Method C (Test Example 3): 18:0 Lyso PC, choline assay, Resorufin fluorescence). Conditions: Assay Method C (Test Example 3), human autotaxin, 18:0 Lyso PC substrate; read-out: Inhibitory Activity (autotaxin enzyme inhibitory activity, IC50 class).
T1 construct: purchased R&D System
Format: biochemical
Protocol: (Method C) Evaluation of Autotaxin Inhibitor
Solution B containing 100 mM Tris-HCl buffer (pH7.5), 150 mM NaCl, 5 mM MgCl2 and 0.05% Triton X-100 was prepared. Human autotaxin enzyme (purchased from R&D System) was diluted with Solution B, and 2.5 μL of which was added to a solution of test compound in DMSO. Furthermore, 2.5 μl of 200 μM 18:0 Lyso PC (purchased from Avanti Polar Lipids) in Solution B was added and allowed to react at room temperature for 2 hours. After completion of the reaction, 15 μL of the coline assay reagent (100 mM Tris-HCl buffer (pH7.5), 5 mM MgCl2, 77 μg/mL choline oxidase, 10 μg/mL peroxidase, 25 μM 10-acetyl-3,7-dihydroxyphenoxazine and excess autotaxin inhibitor) was added and allowed to react at room temperature for 20 minutes. The fluorescent dye Resorufin, which was produced by the reaction, was detected. The fluorescence was detected using ViewLux (PerkinElmer, Inc.) with an excitation wavelength of 531 nm and a fluorescence wavelength of 598 nm.
The percent inhibition of the test compound was calculated by assuming the sample with no test compound as 0% inhibition and the sample with no enzyme as 100% inhibition, and the percent inhibitions at different concentrations of the test compound were plotted to obtain a concentration-dependent curve.

IC50	Compound
0.1 to 1 µM	CCCCCn1c(NC(C)=O)cc(=O)n2cc(-c3ccc(Cl)cc3)nc12 [Compound 333]
> 1 µM	CCCCCn1c(N2CCC[C@H]2C(=O)O)cc(=O)n2cc(-c3ccc(Cl)cc3)nc12 [Compound 334]
0.1 to 1 µM	CCCCCn1c(N2CCC[C@H]2C(=O)NCCCn2ccnc2)cc(=O)n2cc(-c3ccc(Cl)cc3)nc12 [Compound 335]
0.01 to 0.1 µM	CCCCCn1c(N2CCC[C@H]2C(=O)N(C)CCC#N)cc(=O)n2cc(-c3ccc(Cl)cc3)nc12 [Compound 336]
0.01 to 0.1 µM	CCCCCn1c(N2CCC[C@H]2C(=O)N2CCC[C@H]2C(=O)O)cc(=O)n2cc(-c3ccc(Cl)cc3)nc12 [Compound 337]
0.01 to 0.1 µM	CCCCCn1c(N2CCC[C@H]2C(=O)NCCCOC)cc(=O)n2cc(-c3ccc(Cl)cc3)nc12 [Compound 338]
0.01 to 0.1 µM	CCCCCn1c(N2CCC[C@H]2C(=O)NCCCO)cc(=O)n2cc(-c3ccc(Cl)cc3)nc12 [Compound 339]
0.01 to 0.1 µM	CCCCCn1c(N2CCC[C@H]2C(=O)NCCC(=O)OC)cc(=O)n2cc(-c3ccc(Cl)cc3)nc12 [Compound 340]
0.01 to 0.1 µM	CCCCCn1c(N2CCC[C@H]2C(=O)NCCN2CCCC2=O)cc(=O)n2cc(-c3ccc(Cl)cc3)nc12 [Compound 341]
0.1 to 1 µM	CCCCCn1c(N2CCC[C@H]2C(=O)NCCn2ccnc2)cc(=O)n2cc(-c3ccc(Cl)cc3)nc12 [Compound 342]
0.01 to 0.1 µM	CCCCCn1c(N2CCC[C@H]2C(=O)NCCC(=O)N2CCOCC2)cc(=O)n2cc(-c3ccc(Cl)cc3)nc12 [Compound 343]
0.1 to 1 µM	CCCCCn1c(N2CCC[C@H]2C(=O)NCCC(=O)N(C)C)cc(=O)n2cc(-c3ccc(Cl)cc3)nc12 [Compound 344]
< 0.01 µM	CCCCCn1c(N2CCC[C@H]2C(=O)NCCCCC(=O)O)cc(=O)n2cc(-c3ccc(Cl)cc3)nc12 [Compound 345]
0.01 to 0.1 µM	CCCCCn1c(N2CCC[C@H]2C(=O)N(C)CCCO)cc(=O)n2cc(-c3ccc(Cl)cc3)nc12 [Compound 346]
0.01 to 0.1 µM	CCCCCn1c(N2CCC[C@H]2C(=O)NC2(CC(=O)OC)CCOCC2)cc(=O)n2cc(-c3ccc(Cl)cc3)nc12 [Compound 347]
< 0.01 µM	CCCCCn1c(N2CCC[C@H]2C(=O)NCC(=O)O)cc(=O)n2cc(-c3ccc(Cl)cc3)nc12 [Compound 348]
< 0.01 µM	CCCCCn1c(N2CCC[C@H]2C(=O)N2CCCC2C(=O)O)cc(=O)n2cc(-c3ccc(Cl)cc3)nc12 (some centres unmarked) [Compound 349]
< 0.01 µM	CCCCCn1c(N2CCC[C@H]2C(=O)NC(C)(C)CC(=O)O)cc(=O)n2cc(-c3ccc(Cl)cc3)nc12 [Compound 350]
> 1 µM	CCCCCn1c(N2CCC[C@H]2C(=O)NCCCN)cc(=O)n2cc(-c3ccc(Cl)cc3)nc12 [Compound 352]
< 0.01 µM	CCCCCn1c(N2CCC[C@H]2C(=O)N(C)CC(=O)O)cc(=O)n2cc(-c3ccc(Cl)cc3)nc12 [Compound 353]
< 0.01 µM	CCCCCn1c(N2CCC[C@H]2C(=O)NCCCC(=O)O)cc(=O)n2cc(-c3ccc(Cl)cc3)nc12 [Compound 354]

IC50	Compound
< 0.01 µM	CCCCCn1c(N2CCC[C@H]2C(=O)NCC(C)C(=O)O)cc(=O)n2cc(-c3ccc(Cl)cc3)nc12 (some centres unmarked) [Compound 355]
< 0.01 µM	CCCCCn1c(N2CCC[C@H]2C(=O)NC(C)CC(=O)O)cc(=O)n2cc(-c3ccc(Cl)cc3)nc12 (some centres unmarked) [Compound 356]
> 1 µM	CCCCCn1c(N(C)C(C)=O)cc(=O)n2cc(-c3ccc(Cl)cc3)nc12 [Compound 361]
0.01 to 0.1 µM	CCCCCn1c(-c2ccc(C(=O)O)cc2)cc(=O)n2cc(-c3ccc(Cl)cc3)nc12 [Compound 362, 4-(2-(4-chlorophenyl)-5-oxo-8-pentyl-5,8-dihydroimidazo[1,2-a]pyrimidin-7-yl)benzoic acid]
0.01 to 0.1 µM	CCCCCn1c(-c2ccc(C(=O)NCCNC(=O)OCc3ccccc3)cc2)cc(=O)n2cc(-c3ccc(Cl)cc3)nc12 [Compound 363, benzyl 2-(4-(2-(4-chlorophenyl)-5-oxo-8-pentyl-5,8-dihydroimidazo[1,2-a]pyrimidin-7-yl)benzamide)ethylcarbamate]
0.01 to 0.1 µM	CCCCCn1c(-c2ccc(C(=O)NCCN)cc2)cc(=O)n2cc(-c3ccc(Cl)cc3)nc12 [Compound 364, N-(2-aminoethyl)-4-(2-(4-chlorophenyl)-5-oxo-8-pentyl-5,8-dihydroimidazo[1,2-a]pyrimidin-7-yl)benzamide]
0.01 to 0.1 µM	CCCCCn1c(-c2ccc(C(=O)NCCN3CC4(COC4)C3)cc2)cc(=O)n2cc(-c3ccc(Cl)cc3)nc12 [Compound 365]
0.01 to 0.1 µM	CCCCCn1c(-c2cnc(OC)nc2)cc(=O)n2cc(-c3ccc(Cl)cc3)nc12 [Compound 373]
0.01 to 0.1 µM	CCCCCn1c(-c2ccc(C(N)=O)cc2)cc(=O)n2cc(-c3ccc(Cl)cc3)nc12 [Compound 375]
0.01 to 0.1 µM	N#CCCCCn1c(-c2ccc(C(=O)NCCN3CCOCC3)cc2)cc(=O)n2cc(-c3ccc(C(F)(F)F)cc3)nc12 [Compound 376]
0.01 to 0.1 µM	CN(C)CCNC(=O)c1ccc(-c2cc(=O)n3cc(-c4ccc(C(F)(F)F)cc4)nc3n2CCCCC#N)cc1 [Compound 377]
0.01 to 0.1 µM	CN(C)CCNC(=O)c1ccc(-c2cc(=O)n3cc(-c4ccc(Cl)cc4)nc3n2CCCCC#N)cc1 [Compound 378]
0.01 to 0.1 µM	CN(C)CCNC(=O)c1ccc(-c2cc(=O)n3cc(-c4ccc(Cl)cc4)nc3n2CCCC(F)(F)F)cc1 [Compound 381]
0.01 to 0.1 µM	NC(=O)c1ccc(-c2cc(=O)n3cc(-c4ccc(Cl)cc4)nc3n2CCCC(F)(F)F)cc1 [Compound 382]
0.01 to 0.1 µM	O=C(NCCN1CCOCC1)c1ccc(-c2cc(=O)n3cc(-c4ccc(Cl)cc4)nc3n2CCCC(F)(F)F)cc1 [Compound 383]
0.01 to 0.1 µM	CN(C)CCNC(=O)c1ccc(-c2cc(=O)n3cc(-c4ccc(C#N)cc4)nc3n2CCCC(F)(F)F)cc1 [Compound 387]
0.01 to 0.1 µM	N#Cc1ccc(-c2cn3c(=O)cc(-c4ccc(C(N)=O)cc4)n(CCCC(F)(F)F)c3n2)cc1 [Compound 388]
0.01 to 0.1 µM	CCCCCn1c(-c2ccc(C(=O)NCCO)cc2)cc(=O)n2cc(-c3ccc(Cl)cc3)nc12 [Compound 390]
0.01 to 0.1 µM	CCCCCn1c(-c2ccc(C(C)=O)cc2)cc(=O)n2cc(-c3ccc(Cl)cc3)nc12 [Compound 391]
0.01 to 0.1 µM	CCCCCn1c(-c2ccc(CO)cc2)cc(=O)n2cc(-c3ccc(Cl)cc3)nc12 [Compound 394]
0.01 to 0.1 µM	CCCCCn1c(-c2ccc(NS(C)(=O)=O)cc2)cc(=O)n2cc(-c3ccc(Cl)cc3)nc12 [Compound 401]

IC50	Compound
0.1 to 1 µM	CCCCCn1c(-c2ccc(C(=O)N3CCCC3)cc2)cc(=O)n2cc(-c3ccc(Cl)cc3)nc12 [Compound 406]
0.01 to 0.1 µM	CCCCCn1c(-c2cccnc2)cc(=O)n2cc(-c3ccc(Cl)cc3)nc12 [Compound 407]
0.01 to 0.1 µM	CCCCCn1c(-c2cncnc2)cc(=O)n2cc(-c3ccc(Cl)cc3)nc12 [Compound 409]
0.01 to 0.1 µM	CCCCCn1c(-c2ccc(S(=O)(=O)NCCO)cc2)cc(=O)n2cc(-c3ccc(Cl)cc3)nc12 [Compound 412]
0.01 to 0.1 µM	CCCCCn1c(-c2ccc(C(=O)NCCN(C)C)cc2)cc(=O)n2cc(-c3ccc(Cl)cc3)nc12 [Compound 413]
0.01 to 0.1 µM	CCCCCn1c(-c2cnn(CCN3CCOCC3)c2)cc(=O)n2cc(-c3ccc(Cl)cc3)nc12 [Compound 425]
0.01 to 0.1 µM	CCCCCn1c(-c2cc(NC(C)=O)cc(C(=O)O)c2)cc(=O)n2cc(-c3ccc(Cl)cc3)nc12 [Compound 427]
0.1 to 1 µM	CCCCCn1c(-c2cccc(C(=O)NCc3ccccc3)c2)cc(=O)n2cc(-c3ccc(Cl)cc3)nc12 [Compound 428]
0.01 to 0.1 µM	CCCCCn1c(-c2ccc(S(=O)(=O)O)cc2)cc(=O)n2cc(-c3ccc(Cl)cc3)nc12 [Compound 429]
0.01 to 0.1 µM	CCCCCn1c(-c2ccc(S(=O)(=O)N3CCOCC3)cc2)cc(=O)n2cc(-c3ccc(Cl)cc3)nc12 [Compound 430]
0.01 to 0.1 µM	CCCCCn1c(-c2ccc(S(=O)(=O)NC)cc2)cc(=O)n2cc(-c3ccc(Cl)cc3)nc12 [Compound 431]
0.1 to 1 µM	CCCCCn1c(-c2ccc(SC)cc2)cc(=O)n2cc(-c3ccc(Cl)cc3)nc12 [Compound 432]
0.01 to 0.1 µM	CCCCCn1c(-c2ccc(S(C)(=O)=O)cc2)cc(=O)n2cc(-c3ccc(Cl)cc3)nc12 [Compound 433]
0.1 to 1 µM	CCCCCn1c(-c2ccc(NC(C)=O)cc2)cc(=O)n2cc(-c3ccc(Cl)cc3)nc12 [Compound 434]
0.1 to 1 µM	CCCCCn1c(-c2ccc(CC)cc2)cc(=O)n2cc(-c3ccc(Cl)cc3)nc12 [Compound 435]
0.01 to 0.1 µM	CCCCCn1c(-c2cccc(C(=O)NCCOC)c2)cc(=O)n2cc(-c3ccc(Cl)cc3)nc12 [Compound 436]
0.01 to 0.1 µM	CCCCCn1c(-c2ccc(NC(=O)N3CCOCC3)cc2)cc(=O)n2cc(-c3ccc(Cl)cc3)nc12 [Compound 437]
0.01 to 0.1 µM	CCCCCn1c(-c2ccc(NS(=O)(=O)N(C)C)cc2)cc(=O)n2cc(-c3ccc(Cl)cc3)nc12 [Compound 438]
0.01 to 0.1 µM	CCCCCn1c(-c2cccc(C(=O)NCCN(C)C)c2)cc(=O)n2cc(-c3ccc(Cl)cc3)nc12 [Compound 439]
0.1 to 1 µM	CCCCCn1c(-c2ccccc2NS(C)(=O)=O)cc(=O)n2cc(-c3ccc(Cl)cc3)nc12 [Compound 440]
